Test results from patent US6528677B1, “Selective retinoid agonists” (Hoffmann-La Roche Inc., priority 1999, dated 2003).

Legend:
[1] = system: elastase-induced emphysema in rats; test: Repair of alveoli in elastase-induced emphysema (rat model); type: in vivo, male Sprague Dawley rats; settings: starting 21 days post elastase injury, morphometric analysis of lung sections
Method: Effects of RAR Selective Retinoids on Repair of Alveoli in Elastase-induced Emphysema
RAR selective agonists were evaluated for its effects on alveolar repair in the rat model of elastase-induced emphysema in rats (D. Massaro et al. Nature Medicine (1997, 3, 675). Animals were divided into treatment groups of approximately eight. Lung inflammation and alveolar damage was induced in male Sprague Dawley rats by a single installation of pancreatic elastase(porcine derived, Calbiochem) 2 U/gram body mass. Three weeks post injury all-trans retinoic acid or RAR agonist was dissolved in dimethylsulfoxide (20 mg/ml) and stored at −20 C. Fresh working stocks were prepared fresh daily by dilution in PBS to a final concentration of 2 mg/ml. Animals were dosed once daily with the retinoid by intraperitoneal injection or orally, starting 21 days post injury. Control groups were challenged with elastase and 21 days later treated with Vehicle (DMSO/PBS) for 14 days. Animals were sacrificed 24 hours after the last dose of by exsanguination under deep anesthesia.
The lungs were inflated with 10% neutral buffered formalin by intratracheal instillation at a constant rate (1 ml/gram body mass/min). The lung was excised and immersed in fixative for 24 hours prior to processing. Standard methods were used to prepare 5 um paraffin sections. Sections were stained with Hematoxylin and Eosin (H%E). Computerized Morphometric analysis was performed to determine the average alveolar size and alveolar number (Table 1).

| melting point [°C] | Compound | other results |
| --- | --- | --- |
| 156 to 157 | CCCC1(C(=O)Oc2ccc(C(=O)O)cc2)CC2=C(C1)C(C)(C)CCC2(C)C [Example 3.5, 4,4,7,7-Tetramethyl-2-propyl-2,3,4,5,6,7-hexahydro-1H-indene-2-carboxylic acid 4-carboxy-phenyl ester] |  |
| 172 to 173 | CCCCC1(C(=O)Oc2ccc(C(=O)O)cc2)CC2=C(C1)C(C)(C)CCC2(C)C [Example 3.6, 2-Butyl-4,4,7,7-tetramethyl-2,3,4,5,6,7-hexahydro-1H-indene-2-carboxylic acid 4-carboxy-phenyl ester] |  |
| 156 to 158 | CCCCCC1(C(=O)Oc2ccc(C(=O)O)cc2)CC2=C(C1)C(C)(C)CCC2(C)C [compound D, 4,4,7,7-tetramethyl-2-pentyl-2,3,4,5,6,7-hexahydro-1H-indene-2-carboxylic acid 4-carboxy-phenyl ester] | % repair area ([1]; 0.3 mg/kg p.o. once daily): 11.1%; % repair area ([1]; 0.5 mg/kg i.p. once daily): 54%; % repair area ([1]; 1 mg/kg p.o. once daily): 44%; % repair area ([1]; 3 mg/kg p.o. once daily): 48.6% |
| 205 to 206 | CC1(C)CCC(C)(C)C2=C1CC(C)(C(=O)Oc1ccc(C(=O)O)cc1)C2 [B, 2,4,4,7,7-pentamethyl-2,3,4,5,6,7-hexahydro-1H-indene-2-carboxylic acid 4-carboxy-phenyl ester] |  |
| 183 to 184 | CC1(C)CCC(C)(C)C2=C1CC(Cc1ccccc1)(C(=O)Oc1ccc(C(=O)O)cc1)C2 [E, 2-benzyl-4,4,7,7-tetramethyl-2,3,4,5,6,7-hexahydro-1H-indene-2-carboxylic acid 4-carboxy-phenyl ester] |  |
| 182 to 183 | CC1(C)CCC(C)(C)C2=C1CC(CCc1ccccc1)(C(=O)Oc1ccc(C(=O)O)cc1)C2 [Example 3.9, 4,4,7,7-Tetramethyl-2-phenethyl-2,3,4,5,6,7-hexahydro-1H-indene-2-carboxylic acid 4-carboxy-phenyl ester] |  |
| 194 to 196 | CC(C)CC1(C(=O)Oc2ccc(C(=O)O)cc2)CC2=C(C1)C(C)(C)CCC2(C)C [Example 3.7, 2-Isobutyl-4,4,7,7-tetramethyl-2,3,4,5,6,7-hexahydro-1H-indene-2-carboxylic acid 4-carboxy-phenyl ester] |  |
| 175 to 176 | CCC1(C(=O)Oc2ccc(C(=O)O)cc2)CC2=C(C1)C(C)(C)CCC2(C)C [C, 2-ethyl-4,4,7,7-tetramethyl-2,3,4,5,6,7-hexahydro-1H-indene-2-carboxylic acid 4-carboxy-phenyl ester] |  |
| 149 to 150 | CCCCCCC1(C(=O)Oc2ccc(C(=O)O)cc2)CC2=C(C1)C(C)(C)CCC2(C)C [Example 3.8, 2-Hexyl-4,4,7,7-tetramethyl-2,3,4,5,6,7-hexahydro-1H-indene-2-carboxylic acid 4-carboxy-phenyl ester] |  |
